Measured values: PMC10056611, “Synthesis and Biological Evaluation of 3-Amino-4,4-Dimethyl Lithocholic Acid Derivatives as Novel, Selective, and Cellularly Active Allosteric SHP1 Activators” (Molecules, 2023)
Values joined by “and” are separate entries in the source; they are usually repeats but may differ in a detail not shown here. Equal values may be shown once.

Key:
SHP1 = SHP1 (Homo sapiens, UniProt P29350); experiment: SHP1 enzyme assay (DiFMUP fluorogenic substrate), activation; format: biochemical; details: DiFMUP assay; for EC50 / Maximum Activation Fold: mean ± SEM
Description: The SHP1-activating effects of the synthetic compounds were examined by the 6,8-difluoro-4-methylumbelliferyl phosphate (DiFMUP) assay.
The proteins SHP1 and SHP2, containing a GST-tag, were expressed in E. coli. 6,8-Difluoro-4-methylumbelliferyl phosphate (DiFMUP) was used as the fluorogenic substrate. Fluorescence data were collected by the Envision (PerkinElmer, Waltham, MA, USA) plate reader, using excitation and emission wavelengths of 358 and 455 nm, respectively. A sigmoidal dose-response curve was fitted to the data, and the EC50 values were calculated using GraphPad Prism. In the data processing, the fitting and curves were calculated using nonlinear regression, and the fold value of the compound was calculated using the software GraphPad Prism 8. The folds were obtained according to the equation: Y = Bottom + (Top-Bottom)/(1 + 10^((LogEC50-X) × HillSlope)). The data represent mean values ± standard error of the mean (SEM) of eight-point experiments, each performed in triplicates from three independent experiments.

Sequence of SHP1 (P29350 whole entry): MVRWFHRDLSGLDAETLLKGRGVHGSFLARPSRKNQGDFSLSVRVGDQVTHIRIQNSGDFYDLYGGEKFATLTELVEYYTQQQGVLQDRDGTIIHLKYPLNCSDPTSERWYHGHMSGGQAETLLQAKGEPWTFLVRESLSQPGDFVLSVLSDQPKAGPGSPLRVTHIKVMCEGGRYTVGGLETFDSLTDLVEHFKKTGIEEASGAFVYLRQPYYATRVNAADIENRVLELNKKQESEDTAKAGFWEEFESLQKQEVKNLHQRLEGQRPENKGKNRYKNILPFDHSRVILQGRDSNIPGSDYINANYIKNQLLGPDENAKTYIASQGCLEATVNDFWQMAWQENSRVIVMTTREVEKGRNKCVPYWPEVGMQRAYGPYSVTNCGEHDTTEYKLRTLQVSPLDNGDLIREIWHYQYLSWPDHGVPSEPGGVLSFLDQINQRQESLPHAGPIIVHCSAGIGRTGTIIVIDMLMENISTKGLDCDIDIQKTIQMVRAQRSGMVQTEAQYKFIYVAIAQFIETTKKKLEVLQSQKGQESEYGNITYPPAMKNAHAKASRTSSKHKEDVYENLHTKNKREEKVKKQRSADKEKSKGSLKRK

SMILES	EC50 (SHP1)	Maximum Activation Fold (SHP1)	melting point	SHP1 activity (in words) (SHP1)
C[C@H](CCCO)[C@H]1CCC2C3CC=C4C(C)(C)C(N)CC[C@]4(C)C3CC[C@@]21C (stereo partly drawn) [Compound 5aa]	19.2 ± 4.59 µM	6.03 ± 0.87 fold	163.5 to 166.3 °C	
C[C@H](CCCO)[C@H]1CCC2C3CC=C4C(C)(C)C(NCCO)CC[C@]4(C)C3CC[C@@]21C (stereo partly drawn) [Compound 5ab]	39.1 ± 3.7 µM		184.3 to 187.5 °C	
C[C@H](CCCO)[C@H]1CCC2C3CC=C4C(C)(C)C(NCCCO)CC[C@]4(C)C3CC[C@@]21C (stereo partly drawn) [Compound 5ac]	30.7 ± 3.8 µM		183.5 to 186.8 °C	
C[C@H](CCCO)[C@H]1CCC2C3CC=C4C(C)(C)C(NCCCCl)CC[C@]4(C)C3CC[C@@]21C (stereo partly drawn) [Compound 5ad]	47.34 ± 0.34 µM		162.7 to 165.5 °C	
CCCNC1CC[C@@]2(C)C(=CCC3C2CC[C@@]2(C)C3CC[C@@H]2[C@H](C)CCCO)C1(C)C (stereo partly drawn) [Compound 5ae, (4R)-4-((10R,13R,17R)-4,4,10,13-tetramethyl-3-(propylamino)-tetradecahydro-1H-cyclopenta[a]phenanthren-17-yl)pentan-1-ol]	> 50 µM		147.5 to 150.4 °C	
C[C@H](CCCO)[C@H]1CCC2C3CC=C4C(C)(C)C(N5CCC5)CC[C@]4(C)C3CC[C@@]21C (stereo partly drawn) [Compound 5af]	> 50 µM		174.9 to 177.6 °C	
C[C@H](CCCO)[C@H]1CCC2C3C(=O)C=C4C(C)(C)C(N)CC[C@]4(C)C3CC[C@@]21C (stereo partly drawn) [Compound 5ag, (10R,13R,17R)-3-amino-17-((R)-5-hydroxypentan-2-yl)-4,4,10,13-tetramethyl-tetradecahydro-7H-cyclopenta[a]phenanthren-7-one]	33.8 ± 2.93 µM	1.84 ± 0.11 fold	151.3 to 153.7 °C	
C[C@H](CCCO)[C@H]1CCC2C3C(=NO)C=C4C(C)(C)C(N)CC[C@]4(C)C3CC[C@@]21C (stereo partly drawn) [Compound 5ah, (10R,13R,17R)-3-amino-17-((R)-5-hydroxypentan-2-yl)-4,4,10,13-tetramethyl-tetradecahydro-7H-cyclopenta[a]phenanthren-7-oxime]	34.4 ± 2.47 µM	2.13 ± 0.28 fold	218.3 to 219.9 °C	
C[C@H](CCCO)[C@H]1CCC2C3C(O)C=C4C(C)(C)C(N)CC[C@]4(C)C3CC[C@@]21C (stereo partly drawn) [Compound 5ai]	> 50 µM		171.4 to 173.2 °C	
C[C@H](CCCO)[C@H]1CCC2C3C(N)C=C4C(C)(C)C(N)CC[C@]4(C)C3CC[C@@]21C (stereo partly drawn) [Compound 5aj]	> 50 µM		178.7 to 180.2 °C	
C[C@H](CCCO)[C@H]1CCC2C3=CC=C4C(C)(C)C(N)CC[C@]4(C)C3CC[C@@]21C (stereo partly drawn) [Compound 5ak, (4R)-4-((10R,13R,17R)-3-amino-4,4,10,13-tetramethyl-2,3,4,9,10,11,12,13,14,15,16,17-dodecahydro-1H-cyclopenta[a]phenanthren-17-yl)pentan-1-ol]	20 ± 3.34 µM	7.74 fold and 7.74 ± 0.20 fold	179.5 to 181.3 °C	
CNC(=O)CC[C@@H](C)[C@H]1CCC2C3CC=C4C(C)(C)C(N)CC[C@]4(C)C3CC[C@@]21C (stereo partly drawn) [Compound 5al]	40.5 ± 6.58 µM	6.42 ± 0.28 fold	> 300 °C	
CCCNCCC[C@@H](C)[C@H]1CCC2C3CC=C4C(C)(C)C(N)CC[C@]4(C)C3CC[C@@]21C (stereo partly drawn) [Compound 5am, (10R,13R,17R)-4,4,10,13-tetramethyl-17-((R)-5-(propylamino)pentan-2-yl)-tetradecahydro-1H-cyclopenta[a]phenanthren-3-amine]	> 50 µM		> 300 °C	
CC(O)CC[C@@H](C)[C@H]1CCC2C3CC=C4C(C)(C)C(N)CC[C@]4(C)C3CC[C@@]21C (stereo partly drawn) [Compound 5an]	17.6 ± 1.75 µM	6.33 ± 0.01 fold	> 300 °C	
CCC(O)CC[C@@H](C)[C@H]1CCC2C3CC=C4C(C)(C)C(N)CC[C@]4(C)C3CC[C@@]21C (stereo partly drawn) [Compound 5ao]	15.5 ± 4.38 µM	6.59 ± 0.48 fold	> 300 °C	
CCCC(O)CC[C@@H](C)[C@H]1CCC2C3CC=C4C(C)(C)C(N)CC[C@]4(C)C3CC[C@@]21C (stereo partly drawn) [Compound 5ap]	38.1 ± 3.76 µM	6.65 ± 0.35 fold	> 300 °C	
CC(C)C(O)CC[C@@H](C)[C@H]1CCC2C3CC=C4C(C)(C)C(N)CC[C@]4(C)C3CC[C@@]21C (stereo partly drawn) [Compound 5aq, (6R)-6-((10R,13R,17R)-3-amino-4,4,10,13-tetramethyl-tetradecahydro-1H-cyclopenta[a]phenanthren-17-yl)-2-methylheptan-3-ol]	22.1 ± 3.73 µM	6.32 ± 0.34 fold	> 300 °C	
C=CCC(O)CC[C@@H](C)[C@H]1CCC2C3CC=C4C(C)(C)C(N)CC[C@]4(C)C3CC[C@@]21C (stereo partly drawn) [Compound 5ar, (7R)-7-((10R,13R,17R)-3-amino-4,4,10,13-tetramethyl-tetradecahydro-1H-cyclopenta[a]phenanthren-17-yl)oct-1-en-4-ol]	12.9 ± 0.75 µM	6.94 ± 0.17 fold	250.4 to 252.6 °C	
C[C@H](CCC(C)(C)O)[C@H]1CCC2C3CC=C4C(C)(C)C(N)CC[C@]4(C)C3CC[C@@]21C (stereo partly drawn) [Compound 5as, (5R)-5-((10R,13R,17R)-3-amino-4,4,10,13-tetramethyl-tetradecahydro-1H-cyclopenta[a]phenanthren-17-yl)-2-methylhexan-2-ol]	22 ± 3.84 µM	5.73 ± 0.32 fold	215.2 to 217.6 °C	
CCC(O)(CC)CC[C@@H](C)[C@H]1CCC2C3CC=C4C(C)(C)C(N)CC[C@]4(C)C3CC[C@@]21C (stereo partly drawn) [Compound 5at]	12.9 ± 0.3 µM	6.50 ± 0.12 fold	> 300 °C	
CCCC(O)(CCC)CC[C@@H](C)[C@H]1CCC2C3CC=C4C(C)(C)C(N)CC[C@]4(C)C3CC[C@@]21C (stereo partly drawn) [Compound 5au]	24.4 ± 3.61 µM	6.42 ± 0.28 fold	242.6 to 244.9 °C	
C=CCC(O)(CC=C)CC[C@@H](C)[C@H]1CCC2C3CC=C4C(C)(C)C(N)CC[C@]4(C)C3CC[C@@]21C (stereo partly drawn) [Compound 5av, (7R)-4-allyl-7-((10R,13R,17R)-3-amino-4,4,10,13-tetramethyl-tetradecahydro-1H-cyclopenta[a]phenanthren-17-yl)oct-1-en-4-ol]	35.8 ± 1.92 µM	5.90 ± 0.42 fold	235.5 to 237.4 °C	
C[C@H](CO)[C@H]1CCC2C3CC=C4C(C)(C)C(N)CC[C@]4(C)C3CC[C@@]21C (stereo partly drawn) [Compound 5aw]	35.5 ± 3.15 µM		170.6 to 173.8 °C	
C[C@H](CCCO)[C@H]1CCC2C3CC=C4C(C)(C)C(NC(=O)Nc5ccc(Cl)c(C(F)(F)F)c5)CC[C@]4(C)C3CC[C@@]21C (stereo partly drawn) [Compound 5ax, 1-(4-chloro-3-(trifluoromethyl)phenyl)-3-((10R,13R,17R)-17-((R)-5-hydroxypentan-2-yl)-4,4,10,13-tetramethyl-2,3,4,7,8,9,10,11,12,13,14,15,16,17-tetradecahydro-1H-cyclopenta[a]phenanthren-3-yl)urea]	> 50 µM		221.1 to 223.7 °C	no activity
C[C@H](CCCOc1ccc(NC(=O)Nc2ccc(Cl)c(C(F)(F)F)c2)cc1)[C@H]1CCC2C3CC=C4C(C)(C)C(N)CC[C@]4(C)C3CC[C@@]21C (stereo partly drawn) [Compound 5ay]	2.05 ± 0.14 µM	5.54 ± 0.24 fold	192.3 to 194.5 °C	
